Consider one compound from publication PMC5218480 (PLoS ONE, 2017).

The assay has as its system MV-4-11 cells. Nature of the assay: Gene expression microarray analysis (Affymetrix PrimeView) and GSEA. Format: cell-based, human. Further details: RFU PODN (11730768_x_at) / Fold change /veh PODN (11730768_x_at) / RFU LINC00158 (11744669_a_at) / Fold change /veh LINC00158 (11744669_a_at) / RFU DUSP10 (11751237_a_at) / Fold change /veh DUSP10 (11751237_a_at) / RFU ID3 (11757404_x_at) / Fold change /veh ID3 (11757404_x_at) / RFU PLEKHG5 (11737974_s_at) / Fold change /veh PLEKHG5 (11737974_s_at) / RFU LRRC4B (11730491_at) / Fold change /veh LRRC4B (11730491_at) / RFU GIMAP4 (11747438_a_at) / Fold change /veh GIMAP4 (11747438_a_at) / RFU KRT8 (11758183_x_at) / Fold change /veh KRT8 (11758183_x_at) / RFU CNN1 (11734310_a_at) / Fold change /veh CNN1 (11734310_a_at) / RFU VPS37D (11726825_at) / Fold change /veh VPS37D (11726825_at) / RFU C10orf10 (11716522_x_at) / Fold change /veh C10orf10 (11716522_x_at) / RFU KIR2DL2 /// KIR2DL4 /// KIR2DL5A /// KIR2DL5B /// KIR2DS1 /// KIR2DS2 /// KIR2DS3 /// KIR2DS4 /// KIR3DL3 /// KIR3DL3 /// KIR3DS1 (11738374_at) / Fold change /veh KIR2DL2 /// KIR2DL4 /// KIR2DL5A /// KIR2DL5B /// KIR2DS1 /// KIR2DS2 /// KIR2DS3 /// KIR2DS4 /// KIR3DL3 /// KIR3DL3 /// KIR3DS1 (11738374_at) / RFU C1QL1 (11718748_at) / Fold change /veh C1QL1 (11718748_at) / RFU TMPRSS4 (11747572_a_at) / Fold change /veh TMPRSS4 (11747572_a_at) / RFU HAMP (11756126_x_at) / Fold change /veh HAMP (11756126_x_at) / RFU RNFT2 (11725882_a_at) / Fold change /veh RNFT2 (11725882_a_at) / RFU NR4A2 (11747474_a_at) / Fold change /veh NR4A2 (11747474_a_at) / RFU ABCC12 (11746883_a_at) / Fold change /veh ABCC12 (11746883_a_at) / RFU TMEM136 (11760407_x_at) / Fold change /veh TMEM136 (11760407_x_at) / RFU CLDN22 /// WWC2 (11732394_at) / Fold change /veh CLDN22 /// WWC2 (11732394_at) / RFU HLA-DPB1 (11760878_x_at) / Fold change /veh HLA-DPB1 (11760878_x_at) / RFU SPINT1 (11716480_a_at) / Fold change /veh SPINT1 (11716480_a_at) / RFU GAP43 (11754022_s_at) / Fold change /veh GAP43 (11754022_s_at) / RFU A4GNT (11735810_at) / Fold change /veh A4GNT (11735810_at) / RFU PRB3 (11715151_x_at) / Fold change /veh PRB3 (11715151_x_at) / RFU TUBB4B (11761932_at) / Fold change /veh TUBB4B (11761932_at) / RFU CAPN14 (11732068_a_at) / Fold change /veh CAPN14 (11732068_a_at) / RFU TMCC2 (11721928_a_at) / Fold change /veh TMCC2 (11721928_a_at) / RFU IRGQ (11745062_a_at) / Fold change /veh IRGQ (11745062_a_at) / RFU FAM174B (11720279_a_at) / Fold change /veh FAM174B (11720279_a_at) / RFU TMPRSS4 (11748680_a_at) / Fold change /veh TMPRSS4 (11748680_a_at) / RFU FAM212B (11763350_a_at) / Fold change /veh FAM212B (11763350_a_at) / RFU PLEKHG5 (11743358_a_at) / Fold change /veh PLEKHG5 (11743358_a_at) / RFU ZSCAN30 (11745921_a_at) / Fold change /veh ZSCAN30 (11745921_a_at) / RFU CMKLR1 (11741424_a_at) / Fold change /veh CMKLR1 (11741424_a_at) / RFU LOC101060620 /// MAPK8IP1 (11723275_at) / Fold change /veh LOC101060620 /// MAPK8IP1 (11723275_at) / RFU SPTSSB (11747773_x_at) / Fold change /veh SPTSSB (11747773_x_at) / RFU PRSS12 (11739890_at) / Fold change /veh PRSS12 (11739890_at) / RFU BIN1 (11741810_x_at) / Fold change /veh BIN1 (11741810_x_at) / RFU WNT11 (11732464_a_at) / Fold change /veh WNT11 (11732464_a_at) / RFU C10orf10 (11716521_a_at) / Fold change /veh C10orf10 (11716521_a_at) / RFU C5orf56 (11738089_at) / Fold change /veh C5orf56 (11738089_at) / RFU CYB561 (11721691_x_at) / Fold change /veh CYB561 (11721691_x_at) / RFU ANKRD19P (11752326_a_at) / Fold change /veh ANKRD19P (11752326_a_at) / RFU OR2T12 /// OR2T33 /// OR2T8 (11738714_s_at) / Fold change /veh OR2T12 /// OR2T33 /// OR2T8 (11738714_s_at) / RFU VCAN (11748164_a_at) / Fold change /veh VCAN (11748164_a_at) / RFU JSRP1 (11732532_at) / Fold change /veh JSRP1 (11732532_at) / RFU KRTAP10-11 (11738290_x_at) / Fold change /veh KRTAP10-11 (11738290_x_at) / RFU MYO3A (11730013_a_at) / Fold change /veh MYO3A (11730013_a_at) / RFU EBF3 (11725865_a_at) / Fold change /veh EBF3 (11725865_a_at) / RFU CAMK2N1 (11719241_x_at) / Fold change /veh CAMK2N1 (11719241_x_at) / RFU C5orf56 (11738088_a_at) / Fold change /veh C5orf56 (11738088_a_at) / RFU OLFML3 (11715873_a_at) / Fold change /veh OLFML3 (11715873_a_at) / RFU LOC100653217 /// NTM (11731650_a_at) / Fold change /veh LOC100653217 /// NTM (11731650_a_at) / RFU MAPK11 (11762145_a_at) / Fold change /veh MAPK11 (11762145_a_at) / RFU FIZ1 (11724087_x_at) / Fold change /veh FIZ1 (11724087_x_at) / RFU OASL (11726364_x_at) / Fold change /veh OASL (11726364_x_at) / RFU SOX15 (11748057_x_at) / Fold change /veh SOX15 (11748057_x_at) / RFU CD79A (11719716_a_at) / Fold change /veh CD79A (11719716_a_at) / RFU HIST1H1D (11736915_at) / Fold change /veh HIST1H1D (11736915_at) / RFU CASKIN2 (11723855_a_at) / Fold change /veh CASKIN2 (11723855_a_at) / RFU LOC730098 (11760151_x_at) / Fold change /veh LOC730098 (11760151_x_at) / RFU OR4N2 (11742367_at) / Fold change /veh OR4N2 (11742367_at) / RFU PRRT2 (11749266_a_at) / Fold change /veh PRRT2 (11749266_a_at) / RFU SNX32 (11753110_a_at) / Fold change /veh SNX32 (11753110_a_at) / RFU CDHR5 (11726645_a_at) / Fold change /veh CDHR5 (11726645_a_at) / RFU RCAN1 (11760418_a_at) / Fold change /veh RCAN1 (11760418_a_at) / RFU FAM167A (11723789_a_at) / Fold change /veh FAM167A (11723789_a_at) / RFU FAM26E (11764081_at) / Fold change /veh FAM26E (11764081_at) / RFU ISYNA1 (11749810_s_at) / Fold change /veh ISYNA1 (11749810_s_at) / RFU ACY1 (11761880_at) / Fold change /veh ACY1 (11761880_at) / RFU 11764098_at / Fold change /veh 11764098_at / RFU SAMD14 (11745864_x_at) / Fold change /veh SAMD14 (11745864_x_at) / RFU NPB (11741838_a_at) / Fold change /veh NPB (11741838_a_at) / RFU TMPRSS6 (11731388_a_at) / Fold change /veh TMPRSS6 (11731388_a_at) / RFU KRTAP10-2 (11738614_at) / Fold change /veh KRTAP10-2 (11738614_at) / RFU ARHGAP8 /// PRR5-ARHGAP8 (11727945_x_at) / Fold change /veh ARHGAP8 /// PRR5-ARHGAP8 (11727945_x_at) / RFU KRTAP5-7 /// NADSYN1 (11734609_at) / Fold change /veh KRTAP5-7 /// NADSYN1 (11734609_at) / RFU RASL12 (11751679_a_at) / Fold change /veh RASL12 (11751679_a_at) / RFU CDKN2B (11736163_a_at) / Fold change /veh CDKN2B (11736163_a_at) / RFU PRF1 (11729649_at) / Fold change /veh PRF1 (11729649_at) / RFU, ZNF638 /// ZNF638-IT1 / Fold change vs veh, ZNF638 /// ZNF638-IT1 / RFU, PANK3 / Fold change vs veh, PANK3 / RFU, SH3YL1 / Fold change vs veh, SH3YL1 / RFU, ZEB2 / Fold change vs veh, ZEB2 / RFU, NRIP1 / Fold change vs veh, NRIP1 / RFU, PTTG1IP / Fold change vs veh, PTTG1IP / RFU, CAPN2 / Fold change vs veh, CAPN2 / RFU, MED14 / Fold change vs veh, MED14 / RFU, SNORA58 / Fold change vs veh, SNORA58 / RFU, C1orf63 / Fold change vs veh, C1orf63 / RFU, LRRFIP1 / Fold change vs veh, LRRFIP1 / RFU, NDUFAF7 / Fold change vs veh, NDUFAF7 / RFU, SLC12A2 / Fold change vs veh, SLC12A2 / RFU, IBTK / Fold change vs veh, IBTK / RFU, ESF1 / Fold change vs veh, ESF1 / Fold change vs veh, TMEM50B / RFU, TAOK1 / Fold change vs veh, TAOK1 / RFU, ACBD3 / Fold change vs veh, ACBD3 / RFU, TMA16 / Fold change vs veh, TMA16 / RFU, RWDD3 / Fold change vs veh, RWDD3 / RFU, BCAT1 / Fold change vs veh, BCAT1 / RFU, EDEM3 / Fold change vs veh, EDEM3 / RFU, TMEM33 / Fold change vs veh, TMEM33 / RFU, WDR75 / Fold change vs veh, WDR75 / RFU, AHCTF1 / Fold change vs veh, AHCTF1 / RFU, TFRC / Fold change vs veh, TFRC / RFU, ZDHHC17 / Fold change vs veh, ZDHHC17 / RFU, NOM1 / Fold change vs veh, NOM1 / RFU, ARL8B / Fold change vs veh, ARL8B / RFU, ZBTB11 / Fold change vs veh, ZBTB11 / RFU, TAMM41 / Fold change vs veh, TAMM41 / RFU, KIAA1704 /// LOC100996395 / Fold change vs veh, KIAA1704 /// LOC100996395 / RFU, ING1 / Fold change vs veh, ING1 / RFU, TRMT61B / Fold change vs veh, TRMT61B / RFU, FUBP3 / Fold change vs veh, FUBP3 / RFU, TP53 / Fold change vs veh, TP53 / RFU, TNKS2 / Fold change vs veh, TNKS2 / RFU, ZFP14 / Fold change vs veh, ZFP14 / RFU, ACTR2 / Fold change vs veh, ACTR2 / RFU, PPP3R1 / Fold change vs veh, PPP3R1 / RFU, PIK3R1 / Fold change vs veh, PIK3R1 / RFU, HNRNPA1 / Fold change vs veh, HNRNPA1 / RFU, RNF170 / Fold change vs veh, RNF170 / RFU, ZNF28 / Fold change vs veh, ZNF28 / RFU, RNGTT / Fold change vs veh, RNGTT / RFU, OGT / Fold change vs veh, OGT / RFU, BRD1 / Fold change vs veh, BRD1 / RFU, MARS / Fold change vs veh, MARS / RFU, ZNF655 / Fold change vs veh, ZNF655 / RFU, FAHD1 / Fold change vs veh, FAHD1 / RFU, BDP1 / Fold change vs veh, BDP1 / RFU, LRRCC1 / Fold change vs veh, LRRCC1 / RFU, ARID1A / Fold change vs veh, ARID1A / RFU, ZNF146 / Fold change vs veh, ZNF146 / RFU, ZNF330 / Fold change vs veh, ZNF330 / RFU, GPN3 / Fold change vs veh, GPN3 / RFU, C9orf123 / Fold change vs veh, C9orf123 / RFU, N4BP2L2 / Fold change vs veh, N4BP2L2 / RFU, ARFIP1 / Fold change vs veh, ARFIP1 / RFU, FAM179B / Fold change vs veh, FAM179B / RFU, BCL10 / Fold change vs veh, BCL10 / RFU, UHRF1BP1L / Fold change vs veh, UHRF1BP1L / RFU, BET1 / Fold change vs veh, BET1 / RFU, CNOT2 / Fold change vs veh, CNOT2 / RFU, ZNF268 / Fold change vs veh, ZNF268 / Fold change vs veh, ZNF507 / RFU, DGCR2 / Fold change vs veh, DGCR2 / RFU, WDSUB1 / Fold change vs veh, WDSUB1 / Fold change vs veh, HSP90B1 /// MIR3652 / RFU, ADSS / Fold change vs veh, ADSS / RFU, GK / Fold change vs veh, GK / RFU, ZNF148 / Fold change vs veh, ZNF148 / RFU, TAF9 / Fold change vs veh, TAF9 / RFU, SLC1A5 / Fold change vs veh, SLC1A5 / RFU, SLMO2 / Fold change vs veh, SLMO2 / RFU, ABCC4 / Fold change vs veh, ABCC4 / RFU, LOC101060439 /// RAP1B / Fold change vs veh, LOC101060439 /// RAP1B / RFU, RFX7 / Fold change vs veh, RFX7 / RFU, GTPBP10 / Fold change vs veh, GTPBP10 / RFU, CNEP1R1 / Fold change vs veh, CNEP1R1 / RFU, BIVM-ERCC5 /// ERCC5 / Fold change vs veh, BIVM-ERCC5 /// ERCC5 / RFU, ILF3 / Fold change vs veh, ILF3 / RFU 11762660_at / Fold change /veh 11762660_at / RFU VCAN (11757783_s_at) / Fold change /veh VCAN (11757783_s_at) / RFU DDX43 (11728927_at) / Fold change /veh DDX43 (11728927_at) / RFU KRT8 (11758188_x_at) / Fold change /veh KRT8 (11758188_x_at) / RFU NKD1 (11759106_at) / Fold change /veh NKD1 (11759106_at) / RFU SRD5A1 (11742802_a_at) / Fold change /veh SRD5A1 (11742802_a_at) / RFU TPSAB1 /// TPSB2 (11721975_s_at) / Fold change /veh TPSAB1 /// TPSB2 (11721975_s_at) / RFU GSTM3 (11746129_a_at) / Fold change /veh GSTM3 (11746129_a_at) / RFU IL23R (11737362_x_at) / Fold change /veh IL23R (11737362_x_at) / RFU TMEM51 (11727254_a_at) / Fold change /veh TMEM51 (11727254_a_at) / RFU PIWIL2 (11732686_x_at) / Fold change /veh PIWIL2 (11732686_x_at) / RFU ORM1 (11744905_x_at) / Fold change /veh ORM1 (11744905_x_at) / RFU CCDC152 (11743942_at) / Fold change /veh CCDC152 (11743942_at) / RFU ECM1 (11717891_a_at) / Fold change /veh ECM1 (11717891_a_at) / RFU IL23R (11748794_a_at) / Fold change /veh IL23R (11748794_a_at) / RFU TNFAIP8L3 (11732012_x_at) / Fold change /veh TNFAIP8L3 (11732012_x_at) / RFU MBOAT4 (11741988_at) / Fold change /veh MBOAT4 (11741988_at) / RFU 11764193_at / Fold change /veh 11764193_at / RFU TMEM53 (11763286_at) / Fold change /veh TMEM53 (11763286_at) / RFU MAGEB2 (11727129_at) / Fold change /veh MAGEB2 (11727129_at) / RFU TMEM200A (11744735_a_at) / Fold change /veh TMEM200A (11744735_a_at) / RFU CCDC152 (11751479_a_at) / Fold change /veh CCDC152 (11751479_a_at) / RFU FAM211A (11726209_a_at) / Fold change /veh FAM211A (11726209_a_at) / RFU RGS16 (11746705_a_at) / Fold change /veh RGS16 (11746705_a_at) / RFU VCAN (11755009_s_at) / Fold change /veh VCAN (11755009_s_at) / RFU RHOB (11743442_s_at) / Fold change /veh RHOB (11743442_s_at) / RFU RGS16 (11720943_a_at) / Fold change /veh RGS16 (11720943_a_at) / RFU RGS16 (11720944_at) / Fold change /veh RGS16 (11720944_at) / RFU, VPS4B / Fold change vs veh, VPS4B / RFU, CREB1 / Fold change vs veh, CREB1 / RFU, DNAJC13 / Fold change vs veh, DNAJC13 / RFU, GNAQ / Fold change vs veh, GNAQ / RFU, CDK5R1 / Fold change vs veh, CDK5R1 / RFU, ZRANB3 / Fold change vs veh, ZRANB3 / RFU, CUL4A / Fold change vs veh, CUL4A / RFU, CCNY / Fold change vs veh, CCNY / RFU, UFL1 / Fold change vs veh, UFL1 / RFU, COG3 / Fold change vs veh, COG3 / RFU, DIAPH2 / Fold change vs veh, DIAPH2 / RFU, SKA2 / Fold change vs veh, SKA2 / RFU, AFF3 / Fold change vs veh, AFF3 / RFU, LMF1 / Fold change vs veh, LMF1 / RFU, IPO11 / Fold change vs veh, IPO11 / RFU, DFFB / Fold change vs veh, DFFB / RFU, FOXP1 / Fold change vs veh, FOXP1 / RFU, CARD8 / Fold change vs veh, CARD8 / RFU, STRN3 / Fold change vs veh, STRN3 / RFU, ADK / Fold change vs veh, ADK / RFU, RASSF2 / Fold change vs veh, RASSF2 / RFU, WIPF1 / Fold change vs veh, WIPF1 / RFU, LARP1B / Fold change vs veh, LARP1B / RFU, RASA1 / Fold change vs veh, RASA1 / RFU, RB1 / Fold change vs veh, RB1 / RFU, PPFIA1 / Fold change vs veh, PPFIA1 / RFU, MAT2A / Fold change vs veh, MAT2A / RFU, CCT5 / Fold change vs veh, CCT5 / RFU, WDR92 / Fold change vs veh, WDR92 / RFU, CUX1 / Fold change vs veh, CUX1 / RFU, TTC7A / Fold change vs veh, TTC7A / RFU, TMEM135 / Fold change vs veh, TMEM135 / RFU, DEPTOR / Fold change vs veh, DEPTOR / RFU, CPM / Fold change vs veh, CPM / RFU, DNAJB6 / Fold change vs veh, DNAJB6 / RFU, CACNA2D3 / Fold change vs veh, CACNA2D3 / RFU, DTX4 / Fold change vs veh, DTX4 / RFU, TFCP2 / Fold change vs veh, TFCP2 / RFU, GMCL1 /// GMCL1P1 / Fold change vs veh, GMCL1 /// GMCL1P1 / RFU, AEBP2 / Fold change vs veh, AEBP2 / RFU, SNHG1 /// SNORD22 /// SNORD25 /// SNORD26 /// SNORD27 /// SNORD28 /// SNORD29 /// SNORD31 / Fold change vs veh, SNHG1 /// SNORD22 /// SNORD25 /// SNORD26 /// SNORD27 /// SNORD28 /// SNORD29 /// SNORD31 / Fold change (Aza/veh), C12orf56 (ProbeSet 11735607_a_at) / Fold change (ACY-1035/veh), C12orf56 (ProbeSet 11735607_a_at) / Fold change (Aza/veh), FGFR1OP (ProbeSet 11751329_s_at) / Fold change (ACY-1035/veh), FGFR1OP (ProbeSet 11751329_s_at) / Fold change (Aza/veh), VPS36 (ProbeSet 11739960_a_at) / Fold change (ACY-1035/veh), VPS36 (ProbeSet 11739960_a_at) / RFU SYPL1 (11715823_x_at) / Fold change /veh SYPL1 (11715823_x_at) / RFU IGFBP7 (11715501_s_at) / Fold change /veh IGFBP7 (11715501_s_at) / RFU REEP3 (11722064_at) / Fold change /veh REEP3 (11722064_at) / RFU IGLL1 (11728026_x_at) / Fold change /veh IGLL1 (11728026_x_at): dose or concentration left out as unconfirmed. As to conditions: MV-4-11 cells, 48 hours.

Structures are written as SMILES.

On to `Nc1ccc(-c2cccs2)cc1NC(=O)c1ccc2c(c1)cc(C1CC1)n2CCN1CCOCC1` [ACY-1035], for which the “RFU SNX32 (11753110_a_at)” value turned out to be 6.46 RFU.
